From ChEMBL document CHEMBL1156236, “Trypanoside, anti-tuberculosis, leishmanicidal, and cytotoxic activities of tetrahydrobenzothienopyrimidines” (Bioorg Med Chem, 2010)
pIC50: −log10 of the molar value. ≈ marks a conversion by molar mass, not a printed value. Calls of active or inactive are those of the source. No cut-off for these calls is given here.

Columns and labels:
[1] = tested on: Mycobacterium tuberculosis; assay: Antitubercular activity against Mycobacterium tuberculosis H37Rv ATCC 27294 after 7 days by microplate alamar blue assay; type: functional; settings: H37Rv ATCC 27294, 168 h
[2] = Selectivity index, ratio of IC50 for african green monkey Vero cells to IC50 for Trypanosoma cruzi tulahuen C4; settings: Vero cells
DU-145 = assay: Cytotoxicity against human DU145 cells; type: functional
[3] = Selectivity index, ratio of IC50 for african green monkey Vero cells to MIC for Mycobacterium tuberculosis H37Rv ATCC 27294 by microplate alamar blue assay; type: functional
M14 = assay: Cytotoxicity against human M14 cells; type: functional
NCI-H460 = assay: Cytotoxicity against human NCI-H460 cells; type: functional
[4] = Cytotoxicity against BALB/c mouse macrophages after 48 hrs by trypan blue dye exclusion method; type: cell-based; settings: Macrophage
MCF7 = assay: Cytotoxicity against human MCF7 cells; type: functional
[5] = Selectivity index, ratio of IC50 for BALB/c mouse macrophages to IC50 for Leishmania amazonensis MHOM/BR/76/LTB-012
Vero = assay: (§1) Cytotoxicity against african green monkey Vero cells after 72 hrs by MTS assay; settings: Chlorocebus sabaeus, Vero, 72 h
[6] = Cytotoxicity against BALB mouse 3T3 cells; type: cell-based; settings: BALB 3T3 cells
Leishmania amazonensis [7] = assay: Antileishmanial activity against Leishmania amazonensis MHOM/BR/76/LTB-012 amastigotes infected BALB/c mouse macrophages after 48 hrs by MTT assay; type: functional, organism-based; settings: MHOM/BR/76/LTB-012, 48 h
K562 = assay: Cytotoxicity against human K562 cells; type: functional
HT-29 = assay: Cytotoxicity against human HT-29 cells; type: functional
Trypanosoma cruzi [8] = assay: Antitrypanosomal activity against Trypanosoma cruzi tulahuen C4 trypomastigotes infected in african green monkey Vero cells assessed as CPRG cleavage after 120 hrs by microplate reader; type: functional, organism-based
[9] = tested on: Mycobacterium tuberculosis; assay: Antitubercular activity against Mycobacterium tuberculosis H37Rv ATCC 27294 after 7 days by low oxygen recovery assay; type: functional; settings: H37Rv ATCC 27294, 168 h
[10] = Selectivity index, ratio of IC50 for african green monkey Vero cells to MIC for Mycobacterium tuberculosis H37Rv ATCC 27294 by low oxygen recovery assay; type: functional
Leishmania amazonensis [11] = assay: (§2) Antileishmanial activity against Leishmania amazonensis LV79 MPRO/BR/72/M1841 amastigotes infected BALB/c mouse assessed as reduction of parasite burden at 33 mg/kg/day, intralesionally administered after 1 week post infection 3 times per week for 6 weeks measured on week 4 by fluorescence method relative to control; type: functional, organism-based; design: scale not given: the % may be the effect or the level left
Leishmania amazonensis [12] = assay: Antileishmanial activity against Leishmania amazonensis LV79 MPRO/BR/72/M1841 amastigotes infected BALB/c mouse assessed as lesion diameter at 33 mg/kg/day, intralesionally administered after 1 week post infection 3 times per week for 6 weeks measured on week 4 relative to control; type: functional, organism-based
Leishmania amazonensis [13] = assay: Antileishmanial activity against Leishmania amazonensis LV79 MPRO/BR/72/M1841 amastigotes infected BALB/c mouse assessed as lesion diameter at 5 mg/kg/day, intralesionally administered after 1 week post infection 3 times per week for 6 weeks measured on week 7 relative to control; type: functional
Leishmania amazonensis [14] = assay: Antileishmanial activity against Leishmania amazonensis LV79 MPRO/BR/72/M1841 amastigotes infected BALB/c mouse assessed as lesion diameter at 33 mg/kg/day, intralesionally administered after 1 week post infection 3 times per week for 6 weeks measured on week 7 relative to control; type: functional, organism-based
Leishmania amazonensis [15] = assay: as §2, with “week 7” for “week 4”; type: functional, organism-based; design: scale not given: the % may be the effect or the level left
Leishmania amazonensis [16] = assay: Antileishmanial activity against Leishmania amazonensis Lma CL1 amastigotes infected BALB/c mouse macrophages after 48 hrs by Giemsa staining method; type: functional, organism-based; settings: Lma CL1, 48 h
Leishmania braziliensis = assay: Antileishmanial activity against Leishmania braziliensis MHOM/PE/PER006 promastigote infected BALB/c mouse macrophages after 48 hrs by Giemsa staining method; type: functional, organism-based; settings: MHOM/PE/PER006, 48 h
Leishmania peruviana = assay: Antileishmanial activity against Leishmania peruviana MHOM/PE/LCA08 promastigote infected BALB/c mouse macrophages after 48 hrs by Giemsa staining method; type: functional, organism-based; settings: MHOM/PE/LCA08, 48 h
Leishmania amazonensis [17] = assay: Antileishmanial activity against Leishmania amazonensis LV79 MPRO/BR/72/M1841 amastigotes infected BALB/c mouse assessed as lesion diameter at 5 mg/kg/day, intralesionally administered after 1 week post infection 3 times per week for 6 weeks measured on week 4 relative to control; type: functional
Leishmania amazonensis [18] = assay: as §2, with “5” for “33”; type: functional; design: scale not given: the % may be the effect or the level left
Leishmania amazonensis [19] = assay: as §2, with “at 5” for “at 33”, “week 7” for “week 4”; type: functional; design: scale not given: the % may be the effect or the level left
Trypanosoma cruzi [20] = assay: Antitrypanosomal activity against Trypanosoma cruzi tulahuen C4 trypomastigotes infected mouse assessed as decrease in parasite replication at 20 mg/kg/day, ip on days 6 to 11 days post infection after 6 days; type: functional, organism-based
[21] = as §1; settings: chlorocebus sabaeus, Vero cells

Row | Molecule | MIC [1] | selectivity ratio [2] | GI50 (DU-145) | Ratio IC50 [3] | GI50 (M14) | GI50 (NCI-H460) | pIC50 [4] | GI50 (MCF7) | Ratio IC50 [5] | pIC50 (Vero) | GI50 [6] | pIC50 (Leishmania amazonensis [7]) | GI50 (K562) | GI50 (HT-29) | pIC50 (Trypanosoma cruzi [8]) | MIC [9] | other results
1 | FC(F)(F)c1ccccc1/C=N/Nc1ncnc2sc3c(c12)CCCC3 | 15.7 µM (≈ 5.91 µg/mL) | 0.6 | 3.5 µM | 1.3 | 6.5 µM | 5.4 µM | 5.51 | 4.8 µM | 2.6 | 5.10 | 15.8 µM | 5.92 | 1.7 µM | 4.5 µM | 4.86 | 15.4 µM (≈ 5.8 µg/mL) | 
2 | COc1ccc(/C=N/Nc2ncnc3sc4c(c23)CCCC4)cc1 | 71.2 µM (≈ 24.1 µg/mL) | 1.1 | 23.1 µM | 3.2 | 16.3 µM | 17.1 µM | 4.19 | 12.5 µM | 1.3 | 4.75 | 14.9 µM | 4.32 | 13.9 µM | 17.3 µM | 4.80 | 26.9 µM (≈ 9.1 µg/mL) | Ratio IC50 [10]: 8.4
3 | MEGLUMINE ANTIMONATE |  |  |  |  |  |  |  |  |  |  |  |  |  |  |  |  | Activity (Leishmania amazonensis [11]): 100%; Activity (Leishmania amazonensis [12]): 2.1 mm; Activity (Leishmania amazonensis [13]): 4.7 mm; Activity (Leishmania amazonensis [14]): 2.2 mm; Activity (Leishmania amazonensis [15]): 100%
4 | Brc1ccc(/C=N/Nc2ncnc3sc4c(c23)CCCC4)cc1 | > 250 µM | 0.8 | 14.6 µM |  | 33.6 µM | 10.5 µM | 5.11 | 5.9 µM | 8.8 | 4.81 | 17.4 µM | 6.05 | 5.7 µM | 12.4 µM | 4.69 |  | pIC50 (Leishmania amazonensis [16]): < 5.70; pIC50 (Leishmania braziliensis): < 5.70; pIC50 (Leishmania peruviana): < 5.70
5 | CCC(CC)=NNc1ncnc2sc3c(c12)CCCC3 | 160 µM (≈ 46.2 µg/mL) | 1 | 15 µM | 0.7 | 20.6 µM | 15.2 µM | 3.79 | 15.1 µM | 8.5 | 4.68 | 4.8 µM | 4.72 | 11.6 µM | 38.9 µM | 4.68 |  | pIC50 (Leishmania amazonensis [16]): 4.96; pIC50 (Leishmania braziliensis): 4.95; Activity (Leishmania amazonensis [17]): 2.8 mm; Activity (Leishmania amazonensis [18]): 65%; Activity (Leishmania amazonensis [13]): 4.9 mm; Activity (Leishmania amazonensis [19]): 17%; pIC50 (Leishmania peruviana): 5.15
6 | FC(F)(F)c1ccc(/C=N/Nc2ncnc3sc4c(c23)CCCC4)cc1 | 16.2 µM (≈ 6.1 µg/mL) | 0.8 | 14.8 µM | 5.5 | 16.9 µM | 15.3 µM | 5.09 | 5.4 µM | 4.1 | 5.10 | 10.8 µM | 5.70 | 6.6 µM | 7 µM | 4.98 | 15.9 µM (≈ 5.98 µg/mL) | Ratio IC50 [10]: 5.6
7 | C(=N\Nc1ncnc2sc3c(c12)CCCC3)/c1ccco1 | 39.9 µM (≈ 11.9 µg/mL) | 0.6 | 15.6 µM | 1 | 11.1 µM | 7.1 µM | 5.62 | 1 µM | 0.6 | 5.00 | 7.8 µM | 5.38 | 4 µM | 8.5 µM | 4.79 | 9.7 µM (≈ 2.89 µg/mL) | Ratio IC50 [10]: 4.2
8 | CCc1ccc(/C=N/Nc2ncnc3sc4c(c23)CCCC4)cc1 | > 250 µM |  | 58.8 µM |  | 190 µM | 28.2 µM | 3.82 | 18.5 µM | 9.6 |  | 36.1 µM | 4.80 | 11.1 µM | 32.2 µM | < 4.60 |  | pIC50 (Leishmania amazonensis [16]): 5.09; pIC50 (Leishmania braziliensis): 4.98; Activity (Leishmania amazonensis [17]): 3 mm; Activity (Leishmania amazonensis [18]): 30%; Activity (Leishmania amazonensis [13]): 4.7 mm; Activity (Leishmania amazonensis [19]): 2%; pIC50 (Leishmania peruviana): 5.02
9 | O=C(Cn1ccnc1[N+](=O)[O-])NCc1ccccc1 |  |  |  |  |  |  |  |  |  |  |  |  |  |  |  |  | Activity (Trypanosoma cruzi [20]): Active
10 | Clc1ccc(/C=N/Nc2ncnc3sc4c(c23)CCCC4)cc1 | > 250 µM | 1.6 | 14.6 µM |  | > 170 µM | 12.8 µM | 3.85 | 8.4 µM | 85.2 | 4.69 | 18.7 µM | 5.77 | 6.7 µM | 15.1 µM | 4.88 |  | pIC50 (Leishmania amazonensis [16]): < 4.52; pIC50 (Leishmania braziliensis): 4.76; Activity (Leishmania amazonensis [17]): 3.6 mm; Activity (Leishmania amazonensis [18]): 46%; Activity (Leishmania amazonensis [13]): 5.2 mm; Activity (Leishmania amazonensis [19]): 25%; pIC50 (Leishmania peruviana): < 4.52
11 | C(=C\c1ccccc1)/C=N/Nc1ncnc2sc3c(c12)CCCC3 | 35 µM (≈ 11.7 µg/mL) | 14.6 | 5.4 µM | 0.1 | 4.6 µM | 2.1 µM | 5.77 | 2.1 µM | 0.1 | 4.68 | 4.4 µM | 4.78 | 1.6 µM | 8.2 µM | 5.85 |  | Activity (Trypanosoma cruzi [20]): inactive
12 | CO[C@H]1/C=C/O[C@@]2(C)Oc3c(C)c(O)c4c(O)c(c(/C=N/N5CCN(C)CC5)c(O)c4c3C2=O)NC(=O)/C(C)=C\C=C\[C@H](C)[C@H](O)[C@@H](C)[C@@H](O)[C@@H](C)[C@H](OC(C)=O)[C@@H]1C [RIFAMPIN] | 0.1 µM (≈ 0.0823 µg/mL) |  |  | 1080 |  |  |  |  |  |  |  |  |  |  |  | < 1.9 µM | selectivity ratio at 72 h [21]: 1080
13 | C/C(=N/Nc1ncnc2sc3c(c12)CCCC3)c1ccccc1 | 72.6 µM (≈ 23.4 µg/mL) | 0.9 | 16.1 µM | 1.4 | 19.8 µM | 15.9 µM | 3.80 | 16.5 µM | 5.6 | 4.91 | 5.4 µM | 4.55 | 10.9 µM | 21.9 µM | 4.86 | 8.7 µM (≈ 2.81 µg/mL) | Ratio IC50 [10]: 11.5
14 | Brc1ccccc1/C=N/Nc1ncnc2sc3c(c12)CCCC3 | 24.3 µM (≈ 9.41 µg/mL) | 0.8 | 7.1 µM | 0.8 | 15.4 µM | 7.7 µM | 5.13 | 4.5 µM | 5.8 | 5.11 | 11.2 µM | 5.89 | 3 µM | 8 µM | 5.03 |  | 
